Test results as given in US4310533A, “Guanidinobenzoic acid derivatives” (Ono Pharmaceutical Co., Ltd., priority 1979, dated 1982).
Structures can show the parent of a compound that is named as a salt.

Experiments:
Solubility in water = assay type: physicochemical
trypsin = biological target: T1, trypsin (Bos taurus, UniProt P00760); test: Inhibitory activity on trypsin in vitro (hydrolysis of p-tosylarginine methyl ester); assay type: biochemical; details: trypsin 0.5 μg, 37° C., 30 minutes, read-out: 50% Inhibition Concentration (molar concentration), Anti-Trypsin
T1 sequence (P00760 24-246): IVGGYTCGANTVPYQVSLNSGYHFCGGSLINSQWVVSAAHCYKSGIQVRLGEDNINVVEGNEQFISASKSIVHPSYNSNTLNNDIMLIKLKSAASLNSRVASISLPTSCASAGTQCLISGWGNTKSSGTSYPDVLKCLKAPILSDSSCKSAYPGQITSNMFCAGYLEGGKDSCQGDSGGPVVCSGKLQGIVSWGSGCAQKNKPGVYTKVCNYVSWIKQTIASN
Protocol: The inhibitory activities on trypsin and plasmin in vitro were determined by the methods of M. Muramatsu et al. described in the Journal of Biochemistry, 58, 214 (1965) for trypsin, and ibid., 57, 402 (1964) for plasmin, and the results are shown in Table 1
^(1) The concentration of the compounds represented by the general
formula (I) at which the activity of trypsin 0.5 μg to hydrolyze
ptosylarginine methyl ester was 50% inhibited, when treated at 37°

plasmin [1] = biological target: T2, plasmin (Homo sapiens, UniProt P00747); test: Inhibitory activity on plasmin in vitro (euglobulin/streptokinase/fibrinogen system); assay type: biochemical; details: human euglobulin, streptokinase, fibrinogen, borate saline buffer pH 7.4, 37° C., 30 minutes; read-out: 50% Inhibition Concentration (molar concentration), Anti-Plasmin
T2 construct: from tissue; host or cells: human euglobulin (plasma fraction), with streptokinase added
T2 sequence (P00747 581-810 limits assumed): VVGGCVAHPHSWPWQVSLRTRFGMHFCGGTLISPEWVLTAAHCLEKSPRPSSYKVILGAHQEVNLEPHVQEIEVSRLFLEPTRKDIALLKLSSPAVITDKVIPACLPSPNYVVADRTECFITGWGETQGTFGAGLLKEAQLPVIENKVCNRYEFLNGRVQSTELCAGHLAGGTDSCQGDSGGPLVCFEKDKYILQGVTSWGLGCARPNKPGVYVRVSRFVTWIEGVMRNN
T2 sequence (P00747 97-580 limits assumed): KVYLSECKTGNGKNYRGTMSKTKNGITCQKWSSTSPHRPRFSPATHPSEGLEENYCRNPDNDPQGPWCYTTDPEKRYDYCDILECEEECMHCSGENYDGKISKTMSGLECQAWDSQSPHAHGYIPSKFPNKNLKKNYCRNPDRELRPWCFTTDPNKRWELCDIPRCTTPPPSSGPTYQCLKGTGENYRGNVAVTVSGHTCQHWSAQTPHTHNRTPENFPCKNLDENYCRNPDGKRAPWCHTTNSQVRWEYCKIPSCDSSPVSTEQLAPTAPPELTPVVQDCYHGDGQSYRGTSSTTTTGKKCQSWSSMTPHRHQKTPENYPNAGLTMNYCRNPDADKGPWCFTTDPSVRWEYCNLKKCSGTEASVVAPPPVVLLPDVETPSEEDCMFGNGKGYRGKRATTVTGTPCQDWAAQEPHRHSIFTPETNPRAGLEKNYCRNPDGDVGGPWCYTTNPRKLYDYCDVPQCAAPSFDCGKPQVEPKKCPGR
Protocol: ^(2) The concentration of the compounds represented by the general
formula (I) at which the activity of plasmin was 50% inhibited, when
reacted in a system comprising 0.1 ml of humaneuglobulin (10 fold
dilution), 0.1 ml of streptokinase (2,000 unit/ml), 0.4 ml of fibrinogen
(4% solution), 0.3 ml of a 0.1M borate saline buffer solution (pH 7.4) an
0.1 ml of a solution of each of the compounds at 37° C. for 30

plasmin [2] = details: prior art; cited from earlier work

| solubility (Solubility in water) [mM] | IC50 (trypsin) [pM] | IC50 (plasmin [1]) [pM] | SMILES | anti-plasmin activity (in words) (plasmin [2]) |
| --- | --- | --- | --- | --- |
| 20 | 500 | 450 | CS(=O)(=O)O.N=C(N)Nc1ccc(C(=O)Oc2ccc(C(=O)OCC(=O)N3CCCCC3)cc2)cc1 [Compound No. 1, piperidinocarbonylmethyl 4-(4-guanidinobenzoyloxy)benzoate mesylate] |  |
| 20 | 180 | 130 | N=C(N)Nc1ccc(C(=O)Oc2ccc(C(=O)OCC(=O)NC3CCCCC3)cc2)cc1 [Compound No. 2, N-cyclohexylcarbamoylmethyl 4-(4-guanidinobenzoyloxy)benzoate mesylate] |  |
|  |  |  | NC[C@H]1CC[C@H](C(=O)O)CC1 [Compound No. 3, trans-4-aminomethylcyclohexanecarboxylic acid] | relatively low activities |
